“Also recorded” adds a separate entry of the source. Where two headings read alike, the source gives them in different places.

Holding throughout (type): biochemical
The test system of data set [1] is arylacylamidase. The data set can be described thus: General findings on effect of stabilizers on arylacylamidase.
In data set [2] the test system is arylacylamidase E.C. 3.5.1.13. The data set can be described thus: Stability of arylacylamidase dried on paper strips with or without o-cresol (Example 2). The note with it: 37° C., two weeks. The protocol: (§1) Arylacylamidase enzyme was dissolved in water containing 50 mM borate buffer at various pH's at widely different concentrations of between 1 and 1500 U/L in the presence of between 1 and 12 mM o-cresol. The same solution of enzyme in buffer was prepared without o-cresol. Both sets of solutions were maintained at 37° C. for a period of two weeks. The enzyme activity was measured at the beginning of the period, as well as at certain times during the two week period. The enzyme activity was determined by a method which uses 50 mM Tris.HCl, pH 8.5, and 1 mM paranitroacetanilide as the enzyme substrate. In the presence of arylacylamidase, the p.nitroacetanilide is hydrolyzed to p-nitroaniline which absorbs at 405 nm. The kinetic assay was performed at 30° C. and 405 nm. One unit of enzyme activity is defined as 1 μ mole of p.nitroaniline formed using p-nitroacetanilide as a substrate at 30° C.
Two arylacylamidase aqueous solutions of 100 U/L were prepared in water containing 50 mM borate buffer, pH 8.0, one in the presence of 10 mM o-cresol and one in the absence of o-cresol. Whatman 54 and Whatman 3MM paper strips (2"×12") were impregnated with these solutions and dried. The dried paper strips were stored at 37° C. for two weeks. […] The enzyme activity was measured using the assay described in Example 1.

The test system of data set [3] is arylacylamidase E.C. 3.5.1.13. Kind of data set: Stability of aqueous arylacylamidase solution at 37° C. with or without o-cresol (Example 1). The settings on record: for Remaining enzyme activity: 37° C. On the procedure:
as §1

Data set [4] deals with arylacylamidase E.C. 3.5.1.13. The note with it: Arylacylamidase 21.6 U/mL with 1 mg/mL sodium benzoate, 10 mM Tris-HCl pH 7.0. The protocol: as §1
The arylacylamidase was dissolved in an aqueous buffer, such as in 10 mM Tris-HCl, pH 7.0, in the presence of 1 mg/ml sodium benzoate and in the absence of sodium benzoate.
The samples were maintained at 4° C., room temperature, and 37° C. The residual activity was determined using the enzyme assay described in Example 1.

The subject of data set [5] is arylacylamidase E.C. 3.5.1.13. The note with it: 37° C., two weeks.
For data set [6], the system named is arylacylamidase E.C. 3.5.1.13. The note with it: 10 mM Tris-HCl pH 7.0. The protocol: as §1
An aqueous solutiOn of arylacylamidase, from about 100-200 U/mL, in 10 mM Tris-HCl buffer, which was maintained at pH 7.0, was lyophilized in the presence of various amounts of sodium benzoate and in the absence of sodium benzoate. After lyophilization, the enzyme samples were dissolved in deionized water to make an aqueous enzyme solution of 100 U/mL of water, and assayed for enzyme activity using the assay described in Example 1.

With `O=C(O)c1ccccc1` [benzoic acid], the “use as substrate / inhibition of arylacylamidase activity” value in data set [1] is recorded as “neither compound is used by the enzyme as a substrate nor causes inhibition of the activity of arylacylamidase”.
In the case of `Cc1ccccc1O` [o-cresol], the “Residual Activity (Recovery)” value is recorded as 40% in data set [2] (Strips of Whatman 3 MM, 10 mM o-cresol) and 70% in data set [2] (Strips of Whatman 54, 10 mM o-cresol). Further, the “use as substrate / inhibition of arylacylamidase activity” value in data set [1] is “neither compound is used by the enzyme as a substrate nor causes inhibition of the activity of arylacylamidase”. Besides, the “effect on stability of the enzyme” value in data set [1] (10-100 mg/ml of ortho-cresol) is reported as “enhances the stability of the enzyme”. Further, in data set [1] (higher concentrations of ortho-cresol, on the order of about 1%), the “effect on the enzyme” value was “inactivate the enzyme and make it unstable”. Also, the “effect on stability of arylacylamidase” value in data set [1] (o-cresol concentrations above about 0.5%) is “specifically destabilizes arylacylamidase; also recorded: act to destabilize the arylacylamidase enzyme”. Also, the Remaining enzyme activity in data set [3] (pH 8.0, 2.8 mM o-cresol, 0 HRS) was found to be 13.6 U/ML; in data set [3] (pH 8.0, 2.8 mM o-cresol, 3 DAYS), 13.6 U/ML; in data set [3] (pH 8.0, 2.8 mM o-cresol, 5 HRS) it was 13.5 U/ML; in data set [3] (pH 8.0, 2.8 mM o-cresol, 7 DAYS) it was 12.3 U/ML; in data set [3] (pH 8.0, 2.8 mM o-cresol, 14 DAYS) it was 11.8 U/ML; in data set [3] (pH 8.0, 4.2 mM o-cresol, 0 HRS) it was 6.25 U/ML. Besides, the Remaining enzyme activity in data set [3] (pH 8.0, 4.2 mM o-cresol, 3 DAYS) is 6.20 U/ML; in data set [3] (pH 8.0, 4.2 mM o-cresol, 5 HRS), 6.16 U/ML; in data set [3] (pH 8.0, 4.2 mM o-cresol, 7 DAYS) it was 5.66 U/ML; in data set [3] (pH 8.0, 4.2 mM o-cresol, 14 DAYS) it was 5.36 U/ML; in data set [3] (pH 9.0, 2.2 mM o-cresol, 0 HRS), 13.6 U/ML; in data set [3] (pH 9.0, 2.2 mM o-cresol, 3 DAYS), 11.2 U/ML. For the same compound, the Remaining enzyme activity in data set [3] (pH 9.0, 2.2 mM o-cresol, 5 HRS) amounted to 13.7 U/ML; in data set [3] (pH 9.0, 2.2 mM o-cresol, 7 DAYS) it was 9.26 U/ML; in data set [3] (pH 9.0, 2.2 mM o-cresol, 14 DAYS), 5.44 U/ML; in data set [3] (pH 9.0, 3.75 mM o-cresol, 0 HRS), 6.15 U/ML; in data set [3] (pH 9.0, 3.75 mM o-cresol, 3 DAYS) it was 5.03 U/ML; in data set [3] (pH 9.0, 3.75 mM o-cresol, 5 HRS) it was 6.20 U/ML. Moreover, the Remaining enzyme activity is given as 4.16 U/ML in data set [3] (pH 9.0, 3.75 mM o-cresol, 7 DAYS) and 2.36 U/ML in data set [3] (pH 9.0, 3.75 mM o-cresol, 14 DAYS). Moreover, the “activity of aqueous solution of arylacylamidase maintained” value in data set [3] (pH 8.0, 14 days at 37° C., 2.8 mM o-cresol) is listed as “over 80%”.
Regarding `O=C(O)c1ccccc1` [sodium benzoate], in data set [4], the “Remaining Activity at 4° C. (8 days)” value is 80%, the “Remaining Activity at 37° C. (1 day)” value is 85%, the “Remaining Activity at 37° C. (4 days)” value is listed as 30% and the “Remaining Activity at Room Temp (8 days)” value is recorded as 71%. Besides, the “Residual Activity (Recovery)” value in data set [5] (Strips of Whatman 3 MM, 10 mM sodium benzoate) is on record as 70%. Also, the “Residual Activity (Recovery)” value in data set [5] (Strips of Whatman 54, 10 mM sodium benzoate) came to 85%. In addition, the “% Recovery After Lyophilization” value in data set [6] (1 mM sodium benzoate) is recorded as 75%. In data set [6] (5 mM sodium benzoate), the “% Recovery After Lyophilization” value came to 95%. Moreover, the “% Recovery After Lyophilization” value in data set [6] (10 mM sodium benzoate) is on record as 104%.

(Values after patent US5188955A, “Method of preserving arylacylamidase in aqueous solution” (GDS Technology, Inc., priority 1992, dated 1993).)
